Results on four molecules are retold here after US11577063B2, “Soluble microneedle containing ingredient for controlling release of neurotransmitters” (LG HOUSEHOLD & HEALTH CARE LTD., priority 2015, dated 2023).

Data set [1] concerns C2C12 cells co-cultured with neuroblasts. The data set can be described thus: Inhibition of muscle contraction by polyphenols, C2C12 cells co-cultured with neuroblasts. The data set is classed as cell-based. The settings on record: FIG. 7; for number of contractions of the C2C12 cells: 50 ppm polyphenol, 2 hours incubation, contractions counted for 30 seconds; for effect of inhibiting neurotransmitter release compared with myricetin: 50 ppm, 2 hours. As for the experimental part:
C2C12 cells were cultured in DMEM medium supplemented with 10% fetal calf serum and 1% antibiotic on a plate. Then, neuroblasts were co-cultured additionally on the same plate. When the C2C12 cells began contraction, the number of contractions by the C2C12 cells was measured for 30 seconds. Then, after completely removing the medium and washing 3 times with PBS, the cells were incubated for 2 hours after adding a calf serum-free medium and 50 ppm of the polyphenol compound. Then, the inhibition of muscle contraction was investigated by measuring the number of contractions of the C2C12 cells again for 30 seconds.

Data set [2] in a line: Maximum content of ampelopsin in cosmetic composition or microneedle. The data set is classed as physicochemical. As for the experimental part: When ampelopsin is prepared into a cosmetic composition, only less than 0.5% (based on 5% PEG-400 and 70% water) of ampelopsin can be contained in the cosmetic composition. In contrast, a microneedle prepared by the method according to the present disclosure may contain ampelopsin up to 5% based on the dry weight of the microneedle. Accordingly, a product containing the polyphenol at high concentration can be prepared.

Data set [3] deals with SNARE complex (SNAP25, SynH3 and Vps proteins) (Homo sapiens, UniProt P60880+P63027+Q16623). The data set can be described thus: Inhibition of SNARE complex formation (SDS-PAGE). The data set is classed as biochemical. The settings on record: FIG. 4; for ability of inhibiting SNARE complex formation compared with myricetin: at low concentrations; for inhibition of SNARE complex formation: polyphenol 1-50 ppm, room temperature 30 minutes, 12% SDS-PAGE. As for the experimental part:
SDS-PAGE (sodium dodecyl sulfate-polyacrylamide gel electrophoresis) analysis was performed to investigate the inhibition of SNARE complex formation by polyphenols such as ampelopsin, kaempferol, myricetin, etc. It was investigated whether the SNARE complex formed when SNAP25, SynH3 and Vps proteins are mixed at a molar ratio of 1:1:1 was inhibited by the addition of the polyphenol compound at a concentration of 1-50 ppm. After adding the respective proteins dropwise into a 1-mL tube, the polyphenol compound was added and reaction was conducted at room temperature for 30 minutes. Then, it was investigated whether the SNARE complex was formed by electrophoresing on 12% SDS-PAGE.

For data set [4], the system named is muscle cells and neuroblasts co-culture. As to the kind of experiment: Inhibition of muscle contraction in vitro by magnesium gluconate, co-cultured muscle cells and neuroblasts. The data set is classed as cell-based. Conditions: various concentrations, observed 10 minutes after treatment; FIG. 9. As for the experimental part: After co-culturing muscle cells and neuroblasts in vitro and treating with magnesium gluconate at various concentrations, decrease in the number of muscle contractions was observed 10 minutes later.

Sequence of SNARE complex (SNAP25, SynH3 and Vps proteins) (P60880 whole entry): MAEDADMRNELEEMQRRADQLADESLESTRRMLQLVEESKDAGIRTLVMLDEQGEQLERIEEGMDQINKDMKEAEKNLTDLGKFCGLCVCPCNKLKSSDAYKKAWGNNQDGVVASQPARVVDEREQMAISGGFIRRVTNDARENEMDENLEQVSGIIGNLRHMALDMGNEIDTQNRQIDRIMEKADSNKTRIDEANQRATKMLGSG
Sequence of SNARE complex (SNAP25, SynH3 and Vps proteins) (Q16623 191-266 limits assumed): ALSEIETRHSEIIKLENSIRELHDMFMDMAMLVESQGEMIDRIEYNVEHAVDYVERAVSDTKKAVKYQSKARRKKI
Sequence of SNARE complex (SNAP25, SynH3 and Vps proteins) (P63027 1-94 limits assumed): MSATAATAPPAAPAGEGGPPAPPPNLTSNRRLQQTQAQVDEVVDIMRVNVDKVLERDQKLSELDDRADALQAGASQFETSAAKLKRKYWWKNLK

Turning to `O=C1c2c(O)cc(O)cc2O[C@H](c2cc(O)c(O)c(O)c2)[C@H]1O` [ampelopsin], in data set [1], the “number of contractions of the C2C12 cells” value (“number … of the C2C12 cells” below) is “reduce the number of contractions of the C2C12 cells” and the “effect of inhibiting neurotransmitter release compared with myricetin” value was “relatively higher effect of inhibiting the release than myricetin”. The “ampelopsin content that can be contained in a cosmetic composition” value in data set [2] (based on 5% PEG-400 and 70% water) was “less than 0.5%”. Moreover, the “ampelopsin content that the microneedle may contain” value in data set [2] (based on the dry weight of the microneedle) is “up to 5%”. In data set [3], the “ability of inhibiting SNARE complex formation compared with myricetin” value was “better ability of inhibiting SNARE complex formation at low concentrations” and the “inhibition of SNARE complex formation” value was “effectively inhibit the SNARE complex formation in a concentration-dependent manner”.
For `O=c1c(O)c(-c2ccc(O)cc2)oc2cc(O)cc(O)c12` [kaempferol], in data set [1], the “number … of the C2C12 cells” value is “reduce the number of contractions of the C2C12 cells” and the “effect of inhibiting neurotransmitter release compared with myricetin” value is reported as “relatively higher effect of inhibiting the release than myricetin”. Further, in data set [3], the “ability of inhibiting SNARE complex formation compared with myricetin” value is “better ability of inhibiting SNARE complex formation at low concentrations” and the “inhibition of SNARE complex formation” value is given as “effectively inhibit the SNARE complex formation in a concentration-dependent manner”.
In the case of `O=c1c(O)c(-c2cc(O)c(O)c(O)c2)oc2cc(O)cc(O)c12` [myricetin], the “number … of the C2C12 cells” value in data set [1] was “reduce the number of contractions of the C2C12 cells”. In addition, the “inhibition of SNARE complex formation” value in data set [3] is “effectively inhibit the SNARE complex formation in a concentration-dependent manner”.
For magnesium gluconate, the “number of muscle contractions” value in data set [4] is “significant decrease in the number of muscle contractions as the concentration of magnesium gluconate was increased”.
